Assays:
[1] = molecular target: T1, mu opiate receptor (MOR) (Rattus norvegicus, UniProt P33535); experiment: MOR agonist activity, [35S]GTPγS binding assay using striatal membranes; format: biochemical; design: MOR agonist activity, [35S]GTPγS binding to Gαo: reference not given here
T1 construct: from tissue; host or cells: striatal membrane preparation (rat striatum)
Procedure: To assess the mu opiate receptor (MOR) agonist activity of positive compounds from the FLNA screening, compounds were tested in a [^35S]GTPγS binding assay using striatal membranes.
Striatal tissue was homogenized in 10 volumes of ice cold 25 mM HEPES buffer, pH 7.4, which contained 1 mM EGTA, 100 mM sucrose, 50 μg/ml leupeptin, 0.04 mM PMSF, 2 μg/ml soybean trypsin inhibitor and 0.2% 2-mercaptoethanol. The homogenates were centrifuged at 800×g for 5 minutes and the supernatants were centrifuged at 49,000×g for 20 minutes. The resulting pellets were suspended in 10 volume of reaction buffer, which contained 25 mM HEPES, pH 7.5, 100 mM NaCl, 50 μg/ml leupeptin, 2 μg/ml soybean trypsin inhibitor, 0.04 mM PMSF and 0.02% […].
The resultant striatal membrane preparation (200 μg) was admixed and maintained (incubated) at 30° C. for 5 minutes in reaction buffer as above that additionally contained 1 mM MgCl2 and 0.5 nM [^35S]GTPγS (0.1 μCi/assay, PerkinElmer Life and Analytical Sciences) in a total volume of 250 μl and continued for 5 minutes in the absence or presence of 0.1-10 μM of an assayed compound of interest. The reaction was terminated by dilution with 750 μl of ice-cold reaction buffer that contained 20 mM MgCl2 and 1 mM EGTA and immediate centrifugation at 16,000×g for 5 minutes.
The resulting pellet was solubilized by sonicating for 10 seconds in 0.5 ml of immunoprecipitation buffer containing 0.5% digitonin, 0.2% sodium cholate and 0.5% NP-40. Normal rabbit serum (1 μl) was added to 1 ml of lysate and incubated at 25° C. for 30 minutes. Nonspecific immune complexes were removed by incubation with 25 μl of protein A/G-conjugated agarose beads at 25° C. for 30 minutes followed by centrifugation at 5,000×g at 4° C. for 5 minutes. The supernatant was divided and separately incubated at 25° C. for 30 minutes with antibodies raised against Gαo proteins (1:1,000 dilutions).
The immunocomplexes so formed were collected by incubation at 25° C. for 30 minutes with 40 μl of agarose-conjugated protein A/G beads and centrifugation at 5,000×g at 4° C. for 5 minutes. The pellet was washed and suspended in buffer containing 50 mM Tris-HCl, pH 8.0, and 1% NP-40. The radioactivity in the suspension was determined by liquid scintillation spectrometry. […] DAMGO (H-Tyr-D-Ala-Gly-N-MePhe-Gly-OH; 1 or 10 μM) was used as a positive control.

[2] = tested on: IL-6 release from primary human astrocytes; experiment: LPS-induced cytokine release from primary human astrocytes, IL-6; format: cell-based
Procedure: (§1) The following study was undertaken to investigate whether contemplated compounds and (+)NLX affect LPS-induced release of the pro-inflammatory cytokine (IL-1β, IL-6 and TNF-α) release from primary human astrocytes. […]
(§2) Primary astrocytes culture was prepared according to the provider's instructions (Lonza). The adherent astrocytes were trypsinized by 0.25% trypsin-EDTA, then collected and sub-cultured in 12-well plate (1.2 ml/well). […] Vehicle groups were pretreated with 0.1% DMSO only. Following addition of LPS, incubation continued for 24 hours. Culture medium was used as the blank and the levels of cytokines, TNF-α, IL-6 and IL-1β in 200 μl of culture medium were determined. Each well was sampled twice.
(§3) Plates were washed 3 times with ice-cold 50 mM Tris HCl (pH 7.4) and incubated at 30° C. with 200 μl medium derived from the above mentioned conditions. Plates were washed 3 times with ice-cold 50 mM Tris HCl (pH 7.4) and incubated at 30° C. with 0.5 μg/well un-conjugated rabbit anti-anti-INF-α, -IL-6 and -IL-1β for 1 hour. After two 1 minute washes with 50 mM Tris HCl (pH 7.4), each well was incubated in 0.5 μg/well FITC-conjugated anti-rabbit IgG (human and mouse absorbed) for 1 hour at 30° C. Plates were washed twice with 200 μl ice-cold Tris HCl, pH 7.4 and the residual […] signals were determined by multimode plate reader, DTX880 (Beckman).

[3] = Mouse hot-water tail-flick test; format: in vivo; conditions: orally administered
Procedure: The mouse “tail flick” test was used to assay the relative antinociceptive activity of compositions containing a compound to be assayed. This assay was substantially that disclosed by Xie et al., 2005 J. Neurosci 25:409-416.
The mouse hot-water tail-flick test was performed by placing the distal third of the tail in a water bath maintained at 52° C. The latency until tail withdrawal from the bath was determined and compared among the treatments. A 10 second cutoff was used to avoid tissue damage. Data are converted to percentage of antinociception by the following formula: (response latency−baseline latency)/(cutoff−baseline latency)×100 to generate dose-response curves. […] Relative potency was determined as a ratio of the A50 values.
To assess tolerance to the antinociceptive effect, the compound was administered twice daily for 7 days at an A90 dose (dose that results in a 90% antinociceptive effect in the 52° C. warm-water tail-flick test), and the tail-flick test was performed daily after the a.m. dose. […] Assays were typically carried out separately using at least 32 and 56 mg/kg dosages, with some assays also separately carried out at 18 and 100 mg/kg.

[4] = tested on: IL-1β release from primary human astrocytes; experiment: LPS-induced cytokine release from primary human astrocytes, IL-1β; format: cell-based
Procedure: as §1, §2, §3

[5] = tested on: TNF-α release from primary human astrocytes; experiment: LPS-induced cytokine release from primary human astrocytes, TNF-α; format: cell-based
Procedure: as §1, §2, §3

[6] = molecular target: Bn-VAKGL pentapeptide of filamin A (FLNA) (Homo sapiens, UniProt P21333); experiment: FITC-NLX-based FLNA screening assay (FLNA peptide binding assay); conditions: 10 nM FITC-NLX, read-out: Percent inhibition of FITC-NLX binding
Procedure: The final assay volume is 100 μl.
Compounds are tested in triplicate or quadruplicate.

[7] = molecular target: filamin A (Homo sapiens, UniProt P21333); conditions: read-out: affinity of binding to filamin A; cited from earlier work
Chain of filamin A (P21333 whole entry): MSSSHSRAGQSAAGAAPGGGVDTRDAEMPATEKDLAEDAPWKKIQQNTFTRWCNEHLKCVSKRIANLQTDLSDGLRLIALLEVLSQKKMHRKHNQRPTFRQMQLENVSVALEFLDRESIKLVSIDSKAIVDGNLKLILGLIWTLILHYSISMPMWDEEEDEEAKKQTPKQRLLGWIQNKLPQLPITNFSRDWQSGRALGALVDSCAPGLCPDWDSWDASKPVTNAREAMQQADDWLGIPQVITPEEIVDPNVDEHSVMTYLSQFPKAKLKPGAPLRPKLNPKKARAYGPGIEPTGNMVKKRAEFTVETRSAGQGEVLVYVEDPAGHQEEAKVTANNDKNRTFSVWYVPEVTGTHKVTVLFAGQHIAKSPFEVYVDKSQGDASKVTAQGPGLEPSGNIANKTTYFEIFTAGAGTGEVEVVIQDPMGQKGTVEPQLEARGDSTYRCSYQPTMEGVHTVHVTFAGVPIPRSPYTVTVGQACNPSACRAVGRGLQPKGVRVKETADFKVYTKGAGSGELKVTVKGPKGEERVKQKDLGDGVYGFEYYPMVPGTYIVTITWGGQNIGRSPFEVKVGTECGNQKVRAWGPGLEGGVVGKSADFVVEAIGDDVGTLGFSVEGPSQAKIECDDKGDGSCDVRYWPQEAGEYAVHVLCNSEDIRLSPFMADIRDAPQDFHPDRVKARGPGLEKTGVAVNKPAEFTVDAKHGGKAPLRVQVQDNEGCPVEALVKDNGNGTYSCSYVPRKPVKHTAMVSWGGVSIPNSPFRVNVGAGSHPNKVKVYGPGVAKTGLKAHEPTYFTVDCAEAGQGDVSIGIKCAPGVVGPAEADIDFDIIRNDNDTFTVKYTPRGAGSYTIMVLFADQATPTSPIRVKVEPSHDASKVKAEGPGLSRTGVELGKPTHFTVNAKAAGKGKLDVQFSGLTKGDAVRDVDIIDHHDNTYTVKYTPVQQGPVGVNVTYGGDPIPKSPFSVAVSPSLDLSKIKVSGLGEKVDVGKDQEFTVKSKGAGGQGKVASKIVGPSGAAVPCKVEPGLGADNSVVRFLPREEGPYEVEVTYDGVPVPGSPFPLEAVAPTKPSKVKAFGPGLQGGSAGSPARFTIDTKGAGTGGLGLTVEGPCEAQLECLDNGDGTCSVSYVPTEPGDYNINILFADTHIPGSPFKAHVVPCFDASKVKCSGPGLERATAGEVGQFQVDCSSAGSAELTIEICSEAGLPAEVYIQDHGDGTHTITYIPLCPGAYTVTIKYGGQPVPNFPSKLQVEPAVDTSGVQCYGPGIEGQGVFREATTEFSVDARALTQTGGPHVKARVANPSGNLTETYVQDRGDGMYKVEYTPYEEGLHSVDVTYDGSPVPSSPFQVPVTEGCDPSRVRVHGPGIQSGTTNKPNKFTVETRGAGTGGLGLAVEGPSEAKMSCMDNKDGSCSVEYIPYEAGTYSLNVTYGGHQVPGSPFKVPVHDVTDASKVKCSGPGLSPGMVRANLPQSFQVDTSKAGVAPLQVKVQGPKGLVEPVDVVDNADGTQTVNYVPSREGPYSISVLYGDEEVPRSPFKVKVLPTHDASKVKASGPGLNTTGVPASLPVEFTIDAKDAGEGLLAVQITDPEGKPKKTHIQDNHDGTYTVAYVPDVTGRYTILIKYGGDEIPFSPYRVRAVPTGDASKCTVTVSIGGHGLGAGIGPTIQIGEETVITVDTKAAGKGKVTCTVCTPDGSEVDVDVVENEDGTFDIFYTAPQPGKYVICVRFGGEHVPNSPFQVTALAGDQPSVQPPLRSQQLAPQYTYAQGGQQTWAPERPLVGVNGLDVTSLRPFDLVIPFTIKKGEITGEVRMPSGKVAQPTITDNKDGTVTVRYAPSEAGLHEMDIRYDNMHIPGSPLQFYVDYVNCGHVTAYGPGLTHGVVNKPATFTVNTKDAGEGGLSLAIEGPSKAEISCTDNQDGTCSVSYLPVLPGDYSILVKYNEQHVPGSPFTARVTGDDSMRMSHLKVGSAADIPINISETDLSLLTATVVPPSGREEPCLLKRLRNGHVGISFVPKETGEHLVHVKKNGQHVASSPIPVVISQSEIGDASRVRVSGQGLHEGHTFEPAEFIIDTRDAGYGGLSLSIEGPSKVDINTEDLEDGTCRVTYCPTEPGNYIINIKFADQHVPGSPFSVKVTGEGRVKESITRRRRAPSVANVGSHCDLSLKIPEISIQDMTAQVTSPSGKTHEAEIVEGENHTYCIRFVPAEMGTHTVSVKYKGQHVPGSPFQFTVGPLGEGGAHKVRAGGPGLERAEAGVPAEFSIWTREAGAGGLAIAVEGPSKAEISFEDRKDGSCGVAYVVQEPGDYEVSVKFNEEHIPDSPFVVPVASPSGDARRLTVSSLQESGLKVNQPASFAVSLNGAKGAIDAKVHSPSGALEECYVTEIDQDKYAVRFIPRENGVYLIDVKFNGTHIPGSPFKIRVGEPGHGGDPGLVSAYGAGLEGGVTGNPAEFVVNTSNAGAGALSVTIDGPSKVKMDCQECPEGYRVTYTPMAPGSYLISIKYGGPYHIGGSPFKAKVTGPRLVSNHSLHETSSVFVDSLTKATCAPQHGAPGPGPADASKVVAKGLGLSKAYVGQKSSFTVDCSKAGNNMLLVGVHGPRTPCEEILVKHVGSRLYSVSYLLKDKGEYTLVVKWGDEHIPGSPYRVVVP

[8] = 0.1 μM compound, striatal membranes
[9] = 1 μM compound + BFNA (1 μM β-funaltrexamine)
[10] = 1 μM compound, striatal membranes
[11] = 10 pM compound 2 hours prior to LPS (1 μg/ml) and continued 24 hours
[12] = 1 nM compound 2 hours prior to LPS (1 μg/ml) and continued 24 hours
[13] = 100 nM compound 2 hours prior to LPS (1 μg/ml) and continued 24 hours
[14] = 100 fM compound 2 hours prior to LPS (1 μg/ml) and continued 24 hours

T1 sequence (P33535 whole entry): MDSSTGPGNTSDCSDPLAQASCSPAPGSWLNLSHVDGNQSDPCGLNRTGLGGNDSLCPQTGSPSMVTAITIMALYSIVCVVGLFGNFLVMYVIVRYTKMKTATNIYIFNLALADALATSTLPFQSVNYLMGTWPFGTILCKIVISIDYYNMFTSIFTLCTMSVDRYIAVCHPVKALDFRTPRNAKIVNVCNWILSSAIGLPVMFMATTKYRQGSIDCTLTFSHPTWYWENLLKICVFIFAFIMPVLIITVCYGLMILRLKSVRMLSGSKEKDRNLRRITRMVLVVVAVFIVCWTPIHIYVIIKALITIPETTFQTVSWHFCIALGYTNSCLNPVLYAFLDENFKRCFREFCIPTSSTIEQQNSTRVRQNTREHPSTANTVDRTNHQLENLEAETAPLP

## CCc1ccc(S(=O)(=O)N2CCOC23CCN(CC2CC2)CC3)cc1 [Compound C0135M]
[1]; [8]
  MOR agonist activity, [35S]GTPγS binding to Gαo: 161.3%
[1]; [9]
  MOR agonist activity, [35S]GTPγS binding to Gαo: 113.3%
[1]; [10]
  MOR agonist activity, [35S]GTPγS binding to Gαo: 310.1%

## COc1ccc(S(=O)(=O)N2CCC3(CC2)NCCC(=O)N3)cc1 [Compound C0142M]
[1]; [8]
  MOR agonist activity, [35S]GTPγS binding to Gαo: 143.7%
[1]; [9]
  MOR agonist activity, [35S]GTPγS binding to Gαo: 98.7%
[1]; [10]
  MOR agonist activity, [35S]GTPγS binding to Gαo: 192.5%

## C[C@@H](NC(=O)[C@@H](N)Cc1ccc(O)cc1)C(=O)NCC(=O)N(C)[C@@H](Cc1ccccc1)C(=O)NCCO [DAMGO, reference compound]
[1]; [8]
  MOR agonist activity, [35S]GTPγS binding to Gαo: 168.5%
[1]; [9]
  MOR agonist activity, [35S]GTPγS binding to Gαo: 53.2%
[1]; [10]
  MOR agonist activity, [35S]GTPγS binding to Gαo: 266.1%

## O=S(=O)(c1ccc(F)cc1)N1CCOC12CCN(CC1CC1)CC2 [F-C0134]
[2]; [11]
  IL-6 Average % (±SEM): 78.8 (1.5) %
[2]; [12]
  IL-6 Average % (±SEM): 78.2 (1.8) %
[2]; [13]
  IL-6 Average % (±SEM): 76.3 (2.8) %
[2]; [14]
  IL-6 Average % (±SEM): 81.3 (2.4) %
[3]; 56 mg/kg
  Maximum Antinociception (%): 93%
  Time to Max.: 20 min
[4]; [11]
  IL-1β Average % (±SEM): 78.0 (5.5) %
[4]; [12]
  IL-1β Average % (±SEM): 77.7 (2.9) %
[4]; [13]
  IL-1β Average % (±SEM): 73.2 (3.9) %
[4]; [14]
  IL-1β Average % (±SEM): 73.3 (5.3) %
[5]; [11]
  TNF-α Average % (±SEM): 75.7 (1.8) %
[5]; [12]
  TNF-α Average % (±SEM): 77.4 (4.2) %
[5]; [13]
  TNF-α Average % (±SEM): 75.4 (1.6) %
[5]; [14]
  TNF-α Average % (±SEM): 77.0 (2.8) %

## C=CCN1CC[C@]23c4c5ccc(O)c4O[C@H]2C(=O)CC[C@@]3(O)[C@H]1C5 [NLX, naloxone, reference compound]
[6]; 0.01 μM compound
  inhibition at 0.01 µM: 40.6%
[6]; 0.1 μM compound
  inhibition at 0.1 µM: 47.8%
[6]; 1 μM compound
  inhibition at 1 µM: 51.5%
[7]
  Kd: ~4 pM

## COc1ccc(S(=O)(=O)N2CCSC23CCNCC3)cc1 [S-C0027]
[2]; [11]
  IL-6 Average % (±SEM): 75.6 (1.5) %
[2]; [12]
  IL-6 Average % (±SEM): 77.4 (4.2) %
[2]; [13]
  IL-6 Average % (±SEM): 83.1 (2.1) %
[2]; [14]
  IL-6 Average % (±SEM): 81.0 (1.7) %
[3]; 56 mg/kg
  Maximum Antinociception (%): 70%
  Time to Max.: 30 min
[3]; 100 mg/kg
  Maximum Antinociception (%): 90%
  Time to Max.: 30 min
[4]; [11]
  IL-1β Average % (±SEM): 85.8 (1.3) %
[4]; [12]
  IL-1β Average % (±SEM): 81.9 (2.3) %
[4]; [13]
  IL-1β Average % (±SEM): 79.5 (2.4) %
[4]; [14]
  IL-1β Average % (±SEM): 86.8 (2.0) %
[1]; [8]
  MOR agonist activity, [35S]GTPγS binding to Gαo: 156.2%
[1]; [9]
  MOR agonist activity, [35S]GTPγS binding to Gαo: 56.2%
[1]; [10]
  MOR agonist activity, [35S]GTPγS binding to Gαo: 286.8%
[5]; [11]
  TNF-α Average % (±SEM): 73.6 (3.8) %
[5]; [12]
  TNF-α Average % (±SEM): 72.7 (0.7) %
[5]; [13]
  TNF-α Average % (±SEM): 74.0 (1.7) %
[5]; [14]
  TNF-α Average % (±SEM): 77.7 (2.7) %

## CN1CC[C@]23c4c5ccc(O)c4O[C@H]2[C@@H](O)C=C[C@H]3[C@H]1C5 [morphine, reference compound]
[3]; 56 mg/kg
  Maximum Antinociception (%): 43%
  Time to Max.: 20 min
